# Measured values published in PubChem BioAssay (NCI).
#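 Each compound was tested at five concentrations against cells in 96-well plates for 48 hours. TGI denotes the concentration required for complete inhibition of growth.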
# Columns and labels:
# Test in all cases: NCI-60 cell line screen, 48 h
# UO-31 renal = tested on: UO-31 renal
# MDA-N = tested on: MDA-N
# SK-OV-3 ovarian = tested on: SK-OV-3 ovarian
# COLO 205 colon = tested on: COLO 205 colon
# MCF7 breast = tested on: MCF7 breast
# HOP-62 NSCLC = tested on: HOP-62 NSCLC
# PC-3 prostate = tested on: PC-3 prostate
# HCC-2998 colon = tested on: HCC-2998 colon
# HCT-15 colon = tested on: HCT-15 colon
# MDA-MB-435 = tested on: MDA-MB-435
# T-47D breast = tested on: T-47D breast
# HS 578T breast = tested on: HS 578T breast
# A549 NSCLC = tested on: A549 NSCLC
# HL-60(TB) leukemia = tested on: HL-60(TB) leukemia
# SK-MEL-5 melanoma = tested on: SK-MEL-5 melanoma
# HOP-92 NSCLC = tested on: HOP-92 NSCLC
# HT29 colon = tested on: HT29 colon
# LOX IMVI melanoma = tested on: LOX IMVI melanoma
# NCI-H460 lung = tested on: NCI-H460 lung
# OVCAR-8 ovarian = tested on: OVCAR-8 ovarian
# SN12C renal = tested on: SN12C renal
# UACC-62 melanoma = tested on: UACC-62 melanoma
# NCI-H226 lung = tested on: NCI-H226 lung
# HCT-116 colon = tested on: HCT-116 colon
# EKVX NSCLC = tested on: EKVX NSCLC
# CCRF-CEM leukemia = tested on: CCRF-CEM leukemia
# OVCAR-5 ovarian = tested on: OVCAR-5 ovarian
# RXF 393 renal = tested on: RXF 393 renal
# OVCAR-4 ovarian = tested on: OVCAR-4 ovarian
# ACHN renal = tested on: ACHN renal
# OVCAR-3 ovarian = tested on: OVCAR-3 ovarian
# NCI-H23 lung = tested on: NCI-H23 lung
# DU-145 prostate = tested on: DU-145 prostate
# IGROV1 ovarian = tested on: IGROV1 ovarian
# TK-10 renal = tested on: TK-10 renal
# SF-268 CNS = tested on: SF-268 CNS
# RPMI-8226 leukemia = tested on: RPMI-8226 leukemia
# SK-MEL-28 melanoma = tested on: SK-MEL-28 melanoma
# SF-539 CNS = tested on: SF-539 CNS
# M14 melanoma = tested on: M14 melanoma
# NCI/ADR-RES ovarian = tested on: NCI/ADR-RES ovarian
# CAKI-1 renal = tested on: CAKI-1 renal
# BT-549 breast = tested on: BT-549 breast
# MOLT-4 leukemia = tested on: MOLT-4 leukemia
# SR leukemia = tested on: SR leukemia
# SNB-75 CNS = tested on: SNB-75 CNS
# SW-620 colon = tested on: SW-620 colon
# A498 renal = tested on: A498 renal
# KM12 colon = tested on: KM12 colon
# NCI-H522 lung = tested on: NCI-H522 lung
# MDA-MB-231 breast = tested on: MDA-MB-231 breast
# 786-0 renal = tested on: 786-0 renal
# SK-MEL-2 melanoma = tested on: SK-MEL-2 melanoma
# U251 CNS = tested on: U251 CNS
# SF-295 CNS = tested on: SF-295 CNS
# MALME-3M melanoma = tested on: MALME-3M melanoma
smiles,measurement,setting,value
CCOc1ccccc1N=NC1C(=O)N(C(=O)CC(=O)Nc2ccccc2Cl)N=C1C (stereo unspecified),TGI,UO-31 renal,> 100 µM
same,TGI,MDA-N,> 100 µM
same,TGI,SK-OV-3 ovarian,90.3 µM
same,TGI,COLO 205 colon,> 100 µM
same,TGI,MCF7 breast,> 100 µM
same,TGI,HOP-62 NSCLC,68.8 µM
same,TGI,PC-3 prostate,> 100 µM
same,TGI,HCC-2998 colon,> 100 µM
same,TGI,HCT-15 colon,> 100 µM
same,TGI,MDA-MB-435,> 100 µM
same,TGI,T-47D breast,> 100 µM
same,TGI,HS 578T breast,89 µM
same,TGI,A549 NSCLC,> 100 µM
same,TGI,HL-60(TB) leukemia,> 100 µM
same,TGI,SK-MEL-5 melanoma,> 100 µM
same,TGI,HOP-92 NSCLC,70 µM
same,TGI,HT29 colon,> 100 µM
same,TGI,LOX IMVI melanoma,> 100 µM
same,TGI,NCI-H460 lung,> 100 µM
same,TGI,OVCAR-8 ovarian,> 100 µM
same,TGI,SN12C renal,> 100 µM
same,TGI,UACC-62 melanoma,> 100 µM
same,TGI,NCI-H226 lung,> 100 µM
same,TGI,HCT-116 colon,> 100 µM
same,TGI,EKVX NSCLC,80.9 µM
same,TGI,CCRF-CEM leukemia,> 100 µM
same,TGI,OVCAR-5 ovarian,> 100 µM
same,TGI,RXF 393 renal,> 100 µM
same,TGI,OVCAR-4 ovarian,> 100 µM
same,TGI,ACHN renal,> 100 µM
same,TGI,OVCAR-3 ovarian,> 100 µM
same,TGI,NCI-H23 lung,> 100 µM
same,TGI,DU-145 prostate,> 100 µM
same,TGI,IGROV1 ovarian,> 100 µM
same,TGI,TK-10 renal,> 100 µM
same,TGI,SF-268 CNS,> 100 µM
same,TGI,RPMI-8226 leukemia,> 100 µM
same,TGI,SK-MEL-28 melanoma,> 100 µM
same,TGI,SF-539 CNS,> 100 µM
same,TGI,M14 melanoma,> 100 µM
same,TGI,NCI/ADR-RES ovarian,> 100 µM
same,TGI,CAKI-1 renal,> 100 µM
same,TGI,BT-549 breast,> 100 µM
same,TGI,MOLT-4 leukemia,> 100 µM
same,TGI,SR leukemia,> 100 µM
same,TGI,SNB-75 CNS,> 100 µM
same,TGI,SW-620 colon,> 100 µM
same,TGI,A498 renal,> 100 µM
same,TGI,KM12 colon,> 100 µM
same,TGI,NCI-H522 lung,> 100 µM
same,TGI,MDA-MB-231 breast,> 100 µM
same,TGI,786-0 renal,> 100 µM
same,TGI,SK-MEL-2 melanoma,> 100 µM
same,TGI,U251 CNS,> 100 µM
same,TGI,SF-295 CNS,> 100 µM
same,TGI,MALME-3M melanoma,> 100 µM
